Paper PMC3582038 (Bioorganic & medicinal chemistry, 2012)
Values after ≈ are worked out from the molar mass of the structure shown. Marks after values point to notes of the source that are not given here.

How the values were obtained:
E. coli K12 ΔtolC = format: cell-based; details: efflux pump deficient
[1] = In vivo pharmacokinetics in rats; details: for toxicity in both administration modes: IV 10 mg/kg and PO 100 mg/kg; for unbound peak plasma concentration as multiple of the MIC: peak plasma concentration converted to unbound; for half-life: male, Sprague-Dawley, rat, plasma, iv, 10 mg/kg; for fe (fraction of dose excreted unchanged in urine): mean (SD)
[2] = rats, based on a 10 mg/kg IV dose; ref [21],[22] (Linezolid), [23],[24] (Ofloxacin); cited from earlier work
[3] = test system: Strep. pyogenes ATCC 700294; assay: Antibacterial spectrum MIC, S. pyogenes; format: cell-based; details: Streptococcus pyogenes, ATCC700294, read-out: MIC S. pyogenes
M. tuberculosis = assay: Antituberculosis MIC, microbroth dilution; format: cell-based; details: M. tuberculosis MIC relative to compound 11

SMILES | MIC E. coli ΔtolC (E. coli K12 ΔtolC) [µg/mL] | toxicity in both administration modes ([1]; rats) | unbound peak plasma concentration as multiple of the MIC ([1]; rats, IV 10 mg/kg) [times the MIC] | also measured
CN1CCN(c2ccc(C3CC(c4ccc([N+](=O)[O-])o4)=NO3)cn2)C(=O)C1 (stereo not shown) [Compound 16, 4-methyl-1-(5-(3-(5-nitrofuran-2-yl)-4,5-dihydroisoxazol-5-yl)pyridin-2-yl)piperazin-2-one] | 6.25 (≈ 16.8 µM) |  |  | 
O=[N+]([O-])c1ccc(C2=NOC(c3ccc(N4CCOCC4)cc3)C2)o1 (stereo not shown) [Compound 6, 4-(4-(3-(5-Nitrofuran-2-yl)-4,5-dihydroisoxazol-5-yl)phenyl)morpholine] |  | non-toxic | 5.0 | 
O=[N+]([O-])c1ccc(C2=NOC(c3ccc(N4CCCCC4)cc3)C2)o1 (stereo not shown) [Compound 1] |  | non-toxic | 4.6 | 
CC1COc2c(N3CCN(C)CC3)c(F)cc3c(=O)c(C(=O)O)cn1c23 (stereo not shown) [Ofloxacin] |  |  |  | AUCo0-∞ [2]: 6.1–11.8 ^* hr mg/L
O=[N+]([O-])c1ccc(C2=NOC(c3ccc(N4CCOCC4)nc3)C2)o1 (stereo not shown) [Compound 7, 4-(5-(3-(5-Nitrofuran-2-yl)-4,5-dihydroisoxazol-5-yl)pyridin-2-yl)morpholine] | 6.25 (≈ 18.2 µM) | non-toxic | 9.8 | half-life [1]: 36.6 to 43.2 min; fe (fraction of dose excreted unchanged in urine) ([1]; rats): 0.021 (0.01) %
O=[N+]([O-])c1ccc(C2=NOC(c3ccc(N4CCOCC4)c(F)c3)C2)o1 (stereo not shown) [Compound 8, 4-(2-Fluoro-4-(3-(5-nitrofuran-2-yl)-4,5-dihydroisoxazol-5-yl)phenyl)morpholine] | 6.25 (≈ 17.3 µM) |  |  | 
O=C1COCCN1c1ccc(C2CC(c3ccc([N+](=O)[O-])o3)=NO2)cn1 (stereo not shown) [Compound 19, 4-(5-(3-(5-nitrofuran-2-yl)-4,5-dihydroisoxazol-5-yl)pyridin-2-yl)morpholin-3-one] |  |  |  | MIC [3]: 1000 µg/mL (≈ 2800 µM)
CN1CCN(c2ccc(C3CC(c4ccc([N+](=O)[O-])o4)=NO3)cc2)C(=O)C1 (stereo not shown) [Compound 15, 4-methyl-1-(4-(3-(5-nitrofuran-2-yl)-4,5-dihydroisoxazol-5-yl)phenyl)piperazin-2-one] |  |  | 0.71 | half-life [1]: 36.6 to 43.2 min; toxicity observed after IV dosing ([1]; rats, IV 10 mg/kg): seizures and death in one animal; deaths after oral administration ([1]; rats, PO 100 mg/kg): No animals died; fe (fraction of dose excreted unchanged in urine) ([1]; rats): 0.68 (0.44) %
O=[N+]([O-])c1ccc(C2=NOC(c3ccc(N4CC[S+]([O-])CC4)cc3)C2)o1 (stereo not shown) [Compound 12, 4-(4-(3-(5-nitrofuran-2-yl)-4,5-dihydroisoxazol-5-yl)phenyl)thiomorpholine 1-oxide] |  |  |  | fold weaker MIC value than 11 (M. tuberculosis): 8 fold
